Experimental data from BindingDB's records for doi:10.1016/j.bmcl.2003.11.078 (Virginia Commonwealth University, 2004).

Assay: Binding affinity at imidazoline receptor I-1 of rat.

For `Brc1cccc2c3c([nH]c12)CNCC3` [8-Bromo-2,3,4,9-tetrahydro-1H-beta-carboline], the Ki was 3.74 µM.
